From ChEMBL document CHEMBL1131817, “Structure-based design of irreversible, tripeptidyl human rhinovirus 3C protease inhibitors containing N-methyl amino acids” (Bioorg Med Chem Lett, 1999)

Legend:
Human rhinovirus sp. [1] = assay: In vitro antiviral activity against HRV serotype-14; assay type: functional, organism-based
[2] = biological target: T1, Human rhinovirus A protease (Human rhinovirus sp.) (UniProt Q4U254); assay: Inhibitory activity against Human RhinoVirus serotype-14 3C Protease; assay type: functional; conditions: rhinovirus B14
T1 sequence (whole entry): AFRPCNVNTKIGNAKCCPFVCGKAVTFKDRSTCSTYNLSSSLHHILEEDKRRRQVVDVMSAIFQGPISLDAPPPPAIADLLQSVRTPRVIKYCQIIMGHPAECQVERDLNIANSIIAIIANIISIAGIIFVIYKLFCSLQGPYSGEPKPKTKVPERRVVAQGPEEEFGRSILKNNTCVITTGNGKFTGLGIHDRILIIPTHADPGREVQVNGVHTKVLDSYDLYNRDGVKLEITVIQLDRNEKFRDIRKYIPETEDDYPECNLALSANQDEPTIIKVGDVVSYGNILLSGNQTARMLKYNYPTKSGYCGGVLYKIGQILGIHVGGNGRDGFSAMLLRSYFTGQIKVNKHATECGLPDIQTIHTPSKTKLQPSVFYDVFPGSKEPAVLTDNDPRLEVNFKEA

Human rhinovirus sp. [3] = assay: Inhibitory activity against Human RhinoVirus serotype-14 3C Protease; NI means No inhibition to 50 uM; assay type: functional, organism-based

CCOC(=O)/C=C/[C@H](CCC(N)=O)NC(=O)[C@H](Cc1ccc(F)cc1)N(C)C(=O)[C@H](CC(C)C)NC(=O)c1cc(C)on1
EC50 (Human rhinovirus sp. [1]): 400 nM
k obs / 1 [2]: 59300 M⁻¹ s⁻¹

CCOC(=O)/C=C/[C@H](CCC(N)=O)NC(=O)[C@H](Cc1ccc(F)cc1)N(C)C(=O)[C@H](Cc1cccc2ccccc12)NC(=O)c1cc(C)on1
EC50 (Human rhinovirus sp. [1]): 200 nM
k obs / 1 [2]: 95800 M⁻¹ s⁻¹

CCOC(=O)/C=C/[C@H](CCC(N)=O)N(C)C(=O)[C@H](Cc1ccccc1)NC(=O)[C@H](CC(C)C)NC(=O)OCc1ccccc1
k obs / 1 (Human rhinovirus sp. [3]): No inhibition

CCOC(=O)/C=C/[C@H](CCC(N)=O)NC(=O)[C@H](Cc1ccccc1)N(C)C(=O)[C@H](CC(C)C)NC(=O)c1cc(C)on1
EC50 (Human rhinovirus sp. [1]): 140 nM
k obs / 1 [2]: 108000 M⁻¹ s⁻¹

CCOC(=O)/C=C/[C@H](CCC(N)=O)NC(=O)[C@H](Cc1ccccc1)N(C)C(=O)[C@H](CSc1ccccc1)NC(=O)SC1CCCC1
EC50 (Human rhinovirus sp. [1]): 540 nM
k obs / 1 [2]: 36800 M⁻¹ s⁻¹

CCOC(=O)/C=C/[C@H](CCC(N)=O)NC(=O)[C@H](Cc1ccccc1)NC(=O)[C@H](CC(C)C)N(C)C(=O)OCc1ccccc1
k obs / 1 [2]: 100 M⁻¹ s⁻¹

CCOC(=O)/C=C/[C@H](CCC(N)=O)NC(=O)[C@H](Cc1ccccc1)N(C)C(=O)[C@H](CC(C)C)NC(=O)OCc1ccccc1
EC50 (Human rhinovirus sp. [1]): 1000 nM
k obs / 1 [2]: 5300 M⁻¹ s⁻¹

CCOC(=O)/C=C/[C@H](CCC(N)=O)NC(=O)[C@H](Cc1ccccc1)N(C)C(=O)[C@@H](NC(=O)SC1CCCC1)C(C)C
EC50 (Human rhinovirus sp. [1]): 190 nM
k obs / 1 [2]: 22500 M⁻¹ s⁻¹

CCOC(=O)/C=C/[C@H](CCC(N)=O)NC(=O)[C@H](Cc1ccccc1)NC(=O)[C@H](CC(C)C)NC(=O)OCc1ccccc1
EC50 (Human rhinovirus sp. [1]): 540 nM
k obs / 1 [2]: 25000 M⁻¹ s⁻¹

CCOC(=O)/C=C/[C@H](CCC(N)=O)NC(=O)[C@H](Cc1ccccc1)N(C)C(=O)[C@H](CC(C)C)NC(=O)SC1CCCC1
EC50 (Human rhinovirus sp. [1]): 320 nM
k obs / 1 [2]: 17300 M⁻¹ s⁻¹

CCOC(=O)/C=C/[C@H](C[C@@H]1CCCNC1=O)NC(=O)[C@H](Cc1ccc(F)cc1)N(C)C(=O)[C@H](CC(C)C)NC(=O)c1cc(C)on1
EC50 (Human rhinovirus sp. [1]): 30 nM
k obs / 1 [2]: 610000 M⁻¹ s⁻¹

CCOC(=O)/C=C/[C@H](CCC(N)=O)NC(=O)[C@H](Cc1ccc(F)cc1)N(C)C(=O)[C@H](Cc1ccc2ccccc2c1)NC(=O)c1cc(C)on1
EC50 (Human rhinovirus sp. [1]): 160 nM
k obs / 1 [2]: 144000 M⁻¹ s⁻¹

CCOC(=O)/C=C/[C@H](CCC(N)=O)NC(=O)[C@H](Cc1ccc(F)cc1)N(C)C(=O)[C@H](Cc1c[nH]cn1)NC(=O)c1cc(C)on1
EC50 (Human rhinovirus sp. [1]): 1800 nM
k obs / 1 [2]: 66000 M⁻¹ s⁻¹
